# Laboratory results taken from patent EP0428107A2, “Use of quinolyl-and isoquinolyloxanole-2-ones for the production of a medicament for the treatment of multi-drug resistant tumors” (MERRELL DOW PHARMACEUTICALS INC., priority 1989, dated 1991).
# Tested on: CHO^R cells
# Experiment: Reversal of multidrug resistance: cell growth of vinblastine-resistant CHO^R cells, Coulter counter cell count
# [1] = 72 h, read-out: % Inhibition of Cell Growth Compound Only
SMILES,inhibition at 0.1 µg/mL [1],inhibition at 1 µg/mL [1],inhibition at 5 µg/mL [1],inhibition at 10 µg/mL [1],"% Inhibition of Cell Growth Compound + VLB (compound 0.1 µg/ml + vinblastine 0.2 µg/ml, 72 hr)","% Inhibition of Cell Growth Compound + VLB (compound 1 µg/ml + vinblastine 0.2 µg/ml, 72 hr)","% Inhibition of Cell Growth Compound + VLB (compound 5 µg/ml + vinblastine 0.2 µg/ml, 72 hr)","% Inhibition of Cell Growth Compound + VLB (compound 10 µg/ml + vinblastine 0.2 µg/ml, 72 hr)","effect on cell growth (VLB alone at 0.2 µg/ml, 72 hr)"
CCCc1[nH]c(=O)oc1-c1ccnc2ccccc12 [4-Propyl-5-(4-Quinolinyl)-1-(3H)-Oxazolone],0%,0%,0%,14%,4%,43%,93%,93%,–
"CC[C@]1(O)C[C@@H]2CN(CCc3c([nH]c4ccccc34)[C@@](C(=O)OC)(c3cc4c(cc3OC)N(C)[C@H]3[C@@](O)(C(=O)OC)[C@H](OC(C)=O)[C@]5(CC)C=CCN6CC[C@]43[C@@H]65)C2)C1 [VLB, vinblastine, reference compound]",–,–,–,–,–,–,–,–,did not have any effect on cell growth
